This note sets out measurements from patent US8084612B2, “Proline analogs as ligands for cannabinoid receptors” (Purdue Pharma L.P., priority 2008, dated 2011).

For assay [1], the target named is T1, CB1 receptor (Homo sapiens, UniProt P21554). Nature of the assay: Competition binding assay, [3H]-CP55,940 displacement, CB1 CHO-K1 membranes.
Protocol: (§1) CHO-K1 cells expressing CB1 or CB2 receptors (which were purchased from EuroScreen; Brussels, Belgium) were grown to confluency (20-40×10^6 cells) in 10 cm dishes. Cells were lysed by adding 10 mL/dish ice-cold hypotonic buffer (2.5 mM MgCl2, 50 mM HEPES, pH 7.4). Cell lysates were removed using a cell scraper and homogenized 30 seconds with a BioSpec Tissue Tearer™ (Racine, Wis.). Membranes were collected by centrifugation at 30,000 g for 15 min at 4° C. and pellets resuspended in hypotonic buffer to a final concentration of 1-3 mg/mL.
(§2) Membranes (CB1 or CB2 CHO-K1: 1 μg/well) were incubated at room temperature for 1 hour with 0.5 nM [^3H]-CP55,940 in 500 μL of assay buffer (5 mM MgCl2, 5 mg/mL BSA, 2.5 mM EDTA and 50 mM Tris-HCl, pH 7.4) in the presence of increasing concentrations of unlabeled competitors, e.g. WIN55, 212-2 (a CB1 receptor agonist available from Sigma-Aldrich, St. Louis, Mo.) or ligand of interest. The final concentration of DMSO was 5% . Reactions were terminated by rapid filtration using a 96-well filtration apparatus (Brandel, Gaithersburg, Md.) onto GE/C filter plates (PerkinElmer Life Sciences; Boston, Mass.) pretreated with polyethylenimine 0.5% (w/v). The plates were washed three times with 500 μL of ice-cold assay buffer. Filter plates were subsequently dried at 50° C. for 2-3 hours. Fifty microliters per well BetaScint 20 (PerkinElmer) scintillation cocktail was added and plates counted in a TopCount (PerkinElmer) for 1 min/well.
(§3) Data were analyzed using GraphPad PRISM™, v. […] The concentrations of unlabeled competitors that yield 50% displacement (IC50 values) were calculated from each curve by a non-linear regression analysis fined to a one-site model. In separate experiments, equilibrium dissociation constants (Kd values) were determined for each receptor. […] All Ki values are presented as mean±SEM of n determinations.
The target in assay [2] is T1, CB1 receptor. Nature of the assay: GTPγ[35S] functional binding assay, CB1 membranes. The class given is biochemical. Further details: Brussels, Belgium; host or cells: CHO-K1; Emax: reference not given here. As to conditions: GTPγ[35S] binding; for EC50: n.a. = no activity detected at the highest concentration tested, read-out: CB1 EC 50. In general terms: Binding of GTPγS marks nucleotide exchange on a G protein.

The target of the next assay is CB2 receptor (Homo sapiens, UniProt P34972). Nature of the assay: Competition binding assay, [3H]-CP55,940 displacement, CB2 CHO-K1 membranes.
Sequence of CB2 receptor (P34972 whole entry): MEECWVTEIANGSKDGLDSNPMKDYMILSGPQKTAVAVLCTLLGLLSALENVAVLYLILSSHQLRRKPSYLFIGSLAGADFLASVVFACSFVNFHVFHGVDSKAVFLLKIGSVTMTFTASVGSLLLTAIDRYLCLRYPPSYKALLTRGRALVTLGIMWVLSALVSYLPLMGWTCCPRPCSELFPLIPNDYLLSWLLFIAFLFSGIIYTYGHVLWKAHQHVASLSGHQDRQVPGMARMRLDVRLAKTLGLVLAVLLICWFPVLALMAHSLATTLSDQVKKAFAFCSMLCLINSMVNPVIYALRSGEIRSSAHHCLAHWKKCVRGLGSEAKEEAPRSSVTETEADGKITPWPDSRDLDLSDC

The structures appear in SMILES notation.

T1 sequence (P21554 whole entry): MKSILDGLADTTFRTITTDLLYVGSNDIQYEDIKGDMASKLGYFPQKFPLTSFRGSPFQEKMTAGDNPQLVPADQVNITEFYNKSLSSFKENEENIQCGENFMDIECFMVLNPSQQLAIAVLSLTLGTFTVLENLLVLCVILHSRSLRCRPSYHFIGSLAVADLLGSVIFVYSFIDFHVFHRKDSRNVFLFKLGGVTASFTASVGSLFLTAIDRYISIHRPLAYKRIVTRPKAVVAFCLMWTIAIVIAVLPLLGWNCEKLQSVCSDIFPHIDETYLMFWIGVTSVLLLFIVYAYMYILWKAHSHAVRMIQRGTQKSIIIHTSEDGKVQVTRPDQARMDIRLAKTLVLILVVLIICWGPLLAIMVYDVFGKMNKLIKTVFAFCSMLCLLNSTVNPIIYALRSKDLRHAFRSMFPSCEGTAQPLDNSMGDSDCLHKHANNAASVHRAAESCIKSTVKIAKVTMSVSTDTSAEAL
Protocol for CB2 receptor: as §1, §2, §3

By Ki is commonly meant a measure of affinity in units of concentration, obtained from inhibition or displacement. What is called Emax is the size of the effect at its maximum, as opposed to the concentration needed. Regarding `O=C(Nc1sc2c(c1C(=O)N1CCCCC1)CCCCC2)[C@H]1CCCN1S(=O)(=O)c1ccccc1` [AAA(a)], the Ki was 4.7 nM on CB1 receptor [1] and 4.3 nM on CB2 receptor. The same compound displayed a maximum response (Emax) at CB1 receptor [2] of 80%. For the same compound, at CB1 receptor [2], the EC50 was found to be 702 nM.

At CB1 receptor [1], `O=C(Nc1sc2c(c1C(=O)N1CCCCC1)CCCCC2)[C@@H]1CCCN1S(=O)(=O)c1ccccc1` [AAA(b)] came in with a Ki of 366 nM. The maximal effect (Emax) on CB1 receptor [2] was 8%.

On to `O=C(Nc1sc2c(c1C(=O)N1CCCCC1)CCCCC2)[C@H]1CCCN1S(=O)(=O)c1ccc(F)cc1` [AAB(a)], for which the Ki at CB1 receptor [1] turned out to be 43.5 nM. For the same compound, at CB1 receptor [2], the maximum response (Emax) turned out to be 68% and the EC50 stood at 1910 nM. Further, the inhibition constant Ki at CB2 receptor worked out at 35.8 nM.

In the case of `Cc1ccc(S(=O)(=O)N2CCC[C@@H]2C(=O)Nc2sc3c(c2C(=O)N2CCCCC2)CCCCC3)cc1` [AAC(a)], the Ki at CB1 receptor [1] was determined as 261 nM; at CB2 receptor, 154 nM. Besides, at CB1 receptor [2], the maximal response (Emax) stood at 8%.

Compound `CS(=O)(=O)N1CCC[C@@H]1C(=O)Nc1sc2c(c1C(=O)N1CCCCC1)CCCCC2` [AAD(a)] yielded a Ki at CB1 receptor [1] of 2190 nM.

Consider `O=C(Nc1sc2c(c1C(=O)N1CCCCC1)CCCCC2)[C@H]1CCCN1S(=O)(=O)c1cccs1` [AAF(a)], for which, on CB1 receptor [1], the Ki was 7.3 nM. Moreover, on CB1 receptor [2], the maximum response (Emax) amounted to 150% and the EC50 amounted to 425 nM. In addition, the Ki on CB2 receptor stood at 4.5 nM.

`CCOC(=O)c1c(NC(=O)[C@H]2CCCN2S(=O)(=O)c2ccccc2)sc2c1CCCCC2` [ABE(a)]: the Ki on CB1 receptor [1] came out at 15.1 nM; at CB2 receptor, 11.5 nM. The EC50 on CB1 receptor [2] is > 25000 nM.

`O=C(Nc1sccc1C(=O)N1CCCCC1)[C@H]1CCCN1S(=O)(=O)c1ccccc1` [CAA(a)]: the inhibition constant (Ki) on CB1 receptor [1] amounted to 1890 nM.

For `O=C(Nc1ccsc1C(=O)N1CCCCC1)[C@H]1CCCN1S(=O)(=O)c1ccccc1` [DAA(a)], at CB1 receptor [1], the inhibition constant Ki is 1240 nM.

With `O=C(Nc1sc2c(c1C(=O)N1CCCCC1)CCCCC2)[C@H]1CCCN1C(=O)c1ccccc1` [EAA(a)], the inhibition constant (Ki) at CB1 receptor [1] is 9290 nM.

On CB1 receptor [1], `O=C(Nc1ccccc1C(=O)N1CCCCC1)[C@H]1CCCN1S(=O)(=O)c1ccccc1` [GAA(a)] displayed an inhibition constant Ki of 1130 nM.
